# In patent US20260224516A1, “PHARMACEUTICAL FOR TREATING OR PREVENTING CHEMOTHERAPY-INDUCED PERIPHERAL NEUROPATHY” (NIPPON CHEMIPHAR CO., LTD., priority 2023, published 2026):
# How the values were obtained:
# [1] = system: oxaliplatin-induced peripheral neuropathy model mice; test: Oxaliplatin-induced mouse neuropathic pain model (Example 7): mechanical allodynia, Uralyt and sodium bicarbonate; format: in vivo, male C57BL/6J mice; details: 0.75 g/kg sodium bicarbonate oral twice per day for 13 days; OXP 3 mg/kg i.p. single dose; FIG. 14: day 10
# Procedure: (§1) For the alkalinizing agent, the same test substance as Example 1 and sodium bicarbonate (in this description also referred to as baking soda, manufactured by Tokyo Chemical Industry Co., Ltd., purity: at least 99.0%) were used. Following weighing of the required amount of the sodium bicarbonate, sufficient injection water was added to dissolve the sodium bicarbonate and prepare a solution of the target concentration at the time of use.
# (§2) In the Sham group and the control group, the injection water used as the solvent for the alkalinizing agent was used.
# (§3) The same type of animals as Example 1 were used. Specifically, six-week old male C57BL/6J mice (from Japan SLC, Inc.) were used. The animals were provided with an approximately one-week acclimatization period, and only healthy individuals were then selected for testing. […]
# (§4) Grouping was conducted using the pain-related scores evaluated on the day prior to starting the test (the day prior to test substance administration) as a reference, and specifically, by dividing the individuals into each of the groups to ensure the same averaged pain-related score for each group. […]
# Following the OXP administration, the level of pain was evaluated over time. […] A pain evaluation was also conducted on a day prior to the start of alkalinizing agent administration, and this evaluation was recorded as the Pre value. […]
# [2] = system: paclitaxel-induced peripheral neuropathy model mice; test: Paclitaxel-induced mouse neuropathic pain model (Example 8): mechanical allodynia, Uralyt and sodium bicarbonate; format: in vivo, male C57BL/6J mice; details: 0.75 g/kg sodium bicarbonate oral twice per day for 17 days; PTX 5 mg/kg i.p. single dose; FIG. 16: day 14
# Procedure: as §1, §2, §3, §4
# Following the PTX administration, the level of pain was evaluated over time. […] A pain evaluation was also conducted on a day prior to the start of alkalinizing agent administration, and this evaluation was recorded as the Pre value. […]
smiles,measurement,setting,value
O=C([O-])O.[Na+] [sodium bicarbonate],onset of mechanical allodynia (pain-related score),[1],"suppressed the onset of mechanical allodynia, but the effect was smaller than that observed for the Uralyt administration group"
same,onset of mechanical allodynia (pain-related score),[2],"suppressed the onset of mechanical allodynia, but the effect was smaller than that observed for the Uralyt administration group"
